Results as given in patent US8658646B2, “Pyrrolopyrazine kinase inhibitors” (Hoffmann-LaRoche Inc., priority 2011, dated 2014).
Structures can show the parent of a compound that is named as a salt.

Target: T1, recombinant human SYK360-635 (Homo sapiens, UniProt P43405)
T1 construct: made in house
Experiment: Determination of IC50 of Spleen Tyrosine Kinase (SYK) inhibition, 33P ATP filtration assay
Format: biochemical
Conditions: SYK aa 360-635 0.5 nM; ATP 20 μM, peptide 5 μM, 0.1% BSA; read-out: SYK_ENZYME_FILTRATION/v1, BSA
Description: All concentrations were final in the reaction mixture and all incubations were carried at room temperature. […] SYK Assay Information Determination of IC50 of Spleen Tyrosine Kinase (SYK) Inhibition:
SYK kinase assay is a standard kinase assay adapted to a 96 well plate format. This assay is performed in 96-well format for IC50 determination with 8 samples which represented 10 half log dilutions and a 40 μL reaction volume. The assay measures the incorporation of radiolabeled ^33P γATP into an N-terminally biotinylated peptide substrate, derived from naturally occurring phosphoacceptor consensus sequence (Biotin-11aa DY*E). […] Experimental Method:
DMSO and the mixture was incubated for 10 min at RT.
The kinase reaction was initiated by the addition of 10 μL 4× substrate cocktail containing the DYE peptide substrate [0 or 5 μM], ATP [20 μM] and ^33PγATP [2 μCi/r×n]. After incubation at 30° C. for 15 min, the reaction was terminated by the transfer of 25 μL pf the reaction sample to a 96 well 0.65 μm Millipore MADVNOB membrane/plate containing 200 μL 5 mM EDTA and 20% Streptavidine coated beads in PBS.
The unbound radionucleotides were washed under vacuum with 3×250 μL 2M NaCl; 2×250 μL 2M NaCl+1% phosphoric acid; 1×250 μL H2O. After the last wash membrane/plates were transferred to an adaptor plate, heat dried for 15 min at 60° C., and 50 μL scintillation cocktail was added to each well and 4 h later the amount of radioactivity was counted in a top counter.

Cn1nc(-c2cnc3[nH]cc(C(=O)NC4(CO)CC4)c3n2)c2ccc(F)cc21 [Example I-374, 2-(6-Fluoro-1-methyl-1H-indazol-3-yl)-5H-pyrrolo[2,3-b]pyrazine-7-carboxylic acid (1-hydroxymethyl-cyclopropyl)-amide]
IC50: 0.00765 µM

Cc1ccc2c(-c3cnc4[nH]cc(C(=O)NC5(C#N)CC5)c4n3)nn(C)c2c1 [Example I-424, 2-(1,6-Dimethyl-1H-indazol-3-yl)-5H-pyrrolo[2,3-b]pyrazine-7-carboxylic acid (1-cyano-cyclopropyl)-amide]
IC50: 0.0077 µM

Cn1ncc2c(-c3cnc4[nH]cc(C(=O)NC(C)(C)C)c4n3)cccc21 [Example I-451, N-tert-Butyl-2-(1-methyl-1H-indazol-4-yl)-5H-pyrrolo[3,2-b]pyrazine-7-carboxamide hydrochloride]
IC50: 0.0048 µM

CCNC(=O)c1c[nH]c2ncc(-c3nn(CCCN(C)C)c4ccc(OC(F)F)cc34)nc12 [Example I-453, 2-(5-(Difluoromethoxy)-1-(3-(dimethylamino)propyl)-1H-indazol-3-yl)-N-ethyl-5H-pyrrolo[3,2-b]pyrazine-7-carboxamide trifluoroacetate]
IC50: 0.0857 µM

Cn1nc(-c2cnc3[nH]cc(C(=O)NC(CO)CO)c3n2)c2ccc(Cl)cc21 [Example I-316, 2-(6-Chloro-1-methyl-1H-indazol-3-yl)-5H-pyrrolo[2,3-b]pyrazine-7-carboxylic acid (2-hydroxy-1-hydroxymethyl-ethyl)-amide]
IC50: 0.0146 µM

CC(C)(C)NC(=O)c1c[nH]c2ncc(-n3ncc4ccc(F)cc43)nc12 [Example I-332, 2-(6-Fluoro-indazol-1-yl)-5H-pyrrolo[2,3-b]pyrazine-7-carboxylic acid tert-butylamide]
IC50: 0.107 µM

C[C@@H](NC(=O)c1c[nH]c2ncc(-c3cn(C)c4cc(Cl)ccc34)nc12)C(=O)N1CC(C#N)C1 [Example I-29, 2-(6-Chloro-1-methyl-1H-indol-3-yl)-5H-pyrrolo[2,3-b]pyrazine-7-carboxylic acid [(R)-2-(3-cyano-azetidin-1-yl)-1-methyl-2-oxo-ethyl]-amide]
IC50: 0.0041 µM

Cc1ccc2c(-c3cnc4[nH]cc(C(=O)NC(C)(C)C)c4n3)nn(CCCN(C)C)c2c1 [Example I-427, 2-[1-(3-Dimethylamino-propyl)-6-methyl-1H-indazol-3-yl]-5H-pyrrolo[2,3-b]pyrazine-7-carboxylic acid tert-butylamide]
IC50: 0.0133 µM

Cn1nc(-c2cnc3[nH]cc(C(=O)NC4(C)COC4)c3n2)c2ccc(F)cc21 [Example I-386, 2-(6-Fluoro-1-methyl-1H-indazol-3-yl)-5H-pyrrolo[2,3-b]pyrazine-7-carboxylic acid (3-methyl-oxetan-3-yl)-amide]
IC50: 0.104 µM

CC(C)NC(=O)c1c[nH]c2ncc(-c3c4c(n(C)[n+]3[O-])CCCC4)nc12 [Example I-293, 2-(1-Methyl-2-oxy-4,5,6,7-tetrahydro-1H-indazol-3-yl)-5H-pyrrolo[2,3-b]pyrazine-7-carboxylic acid isopropylamide]
IC50: 2.71 µM

Cn1nc(-c2cnc3[nH]cc(C(=O)N[C@H]4C[C@@H](N)C4)c3n2)c2ccc(F)cc21 [Example I-271, 2-(6-Fluoro-1-methyl-1H-indazol-3-yl)-5H-pyrrolo[2,3-b]pyrazine-7-carboxylic acid (cis-3-amino-cyclobutyl)-amide]
IC50: 0.0303 µM

Cc1ccc2c(-c3cnc4[nH]cc(C(=O)NC(C)(C)CO)c4n3)n[nH]c2c1 [Example I-434, 2-(6-Methyl-1H-indazol-3-yl)-5H-pyrrolo[2,3-b]pyrazine-7-carboxylic acid (2-hydroxy-1,1-dimethyl-ethyl)-amide]
IC50: 0.0046 µM

C[C@H](NC(=O)c1c[nH]c2ncc(-c3nn(C)c4cc(Cl)ccc34)nc12)c1ccccc1 [Example I-389, 2-(6-Chloro-1-methyl-1H-indazol-3-yl)-5H-pyrrolo[2,3-b]pyrazine-7 carboxylic acid ((S)-1-phenyl-ethyl)-amide]
IC50: 0.183 µM

Cn1nc(-c2cnc3[nH]cc(C(=O)NC4(C)CCNC4)c3n2)c2ccc(F)cc21 (stereo not drawn) [Example I-406, 2-(6-Fluoro-1-methyl-1H-indazol-3-yl)-5H-pyrrolo[2,3-b]pyrazine-7-carboxylic acid (3-methyl-pyrrolidin-3-yl)-amide]
IC50: 0.0873 µM

Cn1nc(-c2cnc3[nH]cc(C(=O)N[C@]4(C)CC[C@H](N)CC4)c3n2)c2ccc(F)cc21 [Example I-417, 2-(6-Fluoro-1-methyl-1H-indazol-3-yl)-5H-pyrrolo[2,3-b]pyrazine-7-carboxylic acid (cis-4-amino-1-methyl-cyclohexyl)-amide]
IC50: 0.787 µM

CC(C)(CO)NC(=O)c1c[nH]c2ncc(-n3ncc4ccccc43)nc12 [Example I-321, 2-Indazol-1-yl-5H-pyrrolo[2,3-b]pyrazine-7-carboxylic acid (2-hydroxy-1,1-dimethyl-ethyl)-amide]
IC50: 0.15 µM

CC(C)(CO)NC(=O)c1c[nH]c2ncc(-c3n[nH]c4cc(Cl)ccc34)nc12 [Example I-414, 2-(6-Chloro-1H-indazol-3-yl)-5H-pyrrolo[2,3-b]pyrazine-7-carboxylic acid (2-hydroxy-1,1-dimethyl-ethyl)-amide]
IC50: 0.00525 µM

Cn1nc(-c2cnc3[nH]cc(C(=O)Nc4cccc(C#N)c4)c3n2)c2ccc(Cl)cc21 [Example I-404, 2-(6-Chloro-1-methyl-1H-indazol-3-yl)-5H-pyrrolo[2,3-b]pyrazine-7-carboxylic acid (3-cyano-phenyl)-amide]
IC50: > 10 µM

CC(=O)N(C)CCCn1nc(-c2cnc3[nH]cc(C(=O)NC(C)(C)C)c3n2)c2cc(OC(F)F)ccc21 [Example I-346, 2-{1-[3-(Acetyl-methyl-amino)-propyl]-5-difluoromethoxy-1H-indazol-3-yl}-5H-pyrrolo[2,3-b]pyrazine-7-carboxylic acid tert-butylamide]
IC50: 0.00555 µM

Cc1nn(-c2cnc3[nH]cc(C(=O)NC(C)(C)CO)c3n2)c2ccc(Cl)cc12 [Example I-319, 2-(5-Chloro-3-methyl-indazol-1-yl)-5H-pyrrolo[2,3-b]pyrazine-7 carboxylic acid (2-hydroxy-1,1-dimethyl-ethyl)-amide]
IC50: 0.0346 µM

Cn1nc(-c2cnc3[nH]cc(C(=O)NC4(C(C)(C)O)CCC4)c3n2)c2ccc(F)cc21 [Example I-255, 2-(6-Fluoro-1-methyl-1H-indazol-3-yl)-5H-pyrrolo[2,3-b]pyrazine-7-carboxylic acid [1-(1-hydroxy-1-methyl-ethyl)-cyclobutyl]-amide]
IC50: 0.607 µM

Cn1nc(-c2cnc3[nH]cc(C(=O)NCC4CC4)c3n2)c2ccc(Cl)cc21 [Example I-317, 2-(6-Chloro-1-methyl-1H-indazol-3-yl)-5H-pyrrolo[2,3-b]pyrazine-7-carboxylic acid cyclopropylmethyl-amide]
IC50: 0.0113 µM

CC(C)(C)NC(=O)c1c[nH]c2ncc(-c3n[nH]c4cc(F)ccc34)nc12 [Example I-411, 2-(6-Fluoro-1H-indazol-3-yl)-5H-pyrrolo[2,3-b]pyrazine-7-carboxylic acid tert-butylamide]
IC50: 0.0954 µM

Cn1nc(-c2cnc3[nH]cc(C(=O)NC(C)(C)C#N)c3n2)c2ccc(Cl)cc21 [Example I-407, 2-(6-Chloro-1-methyl-1H-indazol-3-yl)-5H-pyrrolo[2,3-b]pyrazine-7-carboxylic acid (cyano-dimethyl-methyl)-amide]
IC50: 0.0058 µM
